Measured values: paper PMC9042912, “T cell receptor and IL-2 signaling strength control memory CD8^+ T cell functional fitness via chromatin remodeling” (Nature Communications, 2022)
Where “and” joins values, the source holds several entries; their conditions need not be identical. Equal values may be shown once. Read-outs that look alike come from different tables or passages of the source. No end group written: not given here.

What was measured:
OT-I cells = format: in vivo, mouse; conditions: for % Il2ra mut/mut among OT-I / % WT among OT-I: individual values
[1] = test system: OT-I, gBT-I, P14, L9.6 T cells; conditions: mouse
H2-D^b = H2-D^b (Mus musculus, UniProt P01899); format: cell-based
H2-D^b, sequence (P01899 25-362, one chain of several): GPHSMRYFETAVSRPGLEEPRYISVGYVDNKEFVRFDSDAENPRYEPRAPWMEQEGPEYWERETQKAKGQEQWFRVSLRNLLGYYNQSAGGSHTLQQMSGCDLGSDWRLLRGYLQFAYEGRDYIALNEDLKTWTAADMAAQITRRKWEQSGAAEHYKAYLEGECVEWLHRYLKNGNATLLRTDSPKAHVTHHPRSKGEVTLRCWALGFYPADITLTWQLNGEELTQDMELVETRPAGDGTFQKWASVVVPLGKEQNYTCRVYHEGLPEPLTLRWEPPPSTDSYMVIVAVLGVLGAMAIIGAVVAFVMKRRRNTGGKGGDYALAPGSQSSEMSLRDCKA

H2-K^b = target: T1, H2-K^b (Mus musculus, UniProt P01901); test: cell-based
T1 construct: RMA-S cells were added per well to a 96-well flat-bottom plate and incubated at 30 °C overnight; endogenous in cells; host or cells: RMA-S cells (TAP-deficient), obtained from Dr. Steve Porcelli
T1 sequence (P01901 22-369): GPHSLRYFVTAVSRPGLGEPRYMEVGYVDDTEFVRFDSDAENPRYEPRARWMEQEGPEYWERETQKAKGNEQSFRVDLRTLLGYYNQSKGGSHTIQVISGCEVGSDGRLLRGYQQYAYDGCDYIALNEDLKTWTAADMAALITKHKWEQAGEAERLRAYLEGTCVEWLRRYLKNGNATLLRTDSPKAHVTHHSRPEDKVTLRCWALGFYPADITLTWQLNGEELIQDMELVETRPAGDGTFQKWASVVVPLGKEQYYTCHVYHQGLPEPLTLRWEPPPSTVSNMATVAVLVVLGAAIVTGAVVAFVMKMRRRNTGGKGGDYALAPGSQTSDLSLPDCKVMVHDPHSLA
T1 sequence (P01887 21-119 partner): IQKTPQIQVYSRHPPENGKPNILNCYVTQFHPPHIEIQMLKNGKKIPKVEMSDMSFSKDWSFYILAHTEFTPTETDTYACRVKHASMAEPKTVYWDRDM

diphtheria toxin [DT]
decrease of primary OT-I cell expansion (OT-I cells; CD11c+ cell depletion 2 days after Lm-Ova infection): ~ 50% | % Il2ra mut/mut among OT-I (OT-I cells; Memory + DT): 29.30% and 45.50% and 51.90% and 25.10% and 25.90% and 50.30% and 56.40% | % WT among OT-I (OT-I cells; Memory + DT): 70.10% and 54.40% and 47.80% and 74.30% and 73.60% and 49.50% and 43.40% | % Il2ra mut/mut among OT-I (OT-I cells; Primary + DT): 4.26% and 7.74% and 13.10% and 8.93% and 11.40% and 29.60% and 21.10% and 24.20% and 24.80% and 4.23% | % WT among OT-I (OT-I cells; Primary + DT): 91.80% and 86.30% and 90.50% and 87.80% and 89.00% and 69.30% and 77.20% and 73.40% and 64.60% and 95.20% and 95.30% | % OT-I (OT-I cells; depletion of CD11c+ cells in CD11c-DTR mice, compared with control group, each value one mouse (Suppl. Fig. 4B)): 4.98% and 8.05% and 8.87% and 13.60%

KAVYNFATC [GP33-41]
duration for which the Lm-expressed epitope induces naïve T cell proliferation in vivo [1]: ~ 2 days | formation of stable complexes with D^b (H2-D^b): form stable MHC class I complexes

CC[C@H](C)[C@H](NC(=O)[C@@H](NC(=O)[C@@H](N)CO)[C@@H](C)CC)C(=O)N[C@@H](CC(N)=O)C(=O)N[C@@H](Cc1ccccc1)C(=O)N[C@@H](CCC(=O)O)C(=O)N[C@@H](CCCCN)C(=O)N[C@@H](CC(C)C)C(=O)O [N4]
Kd (H2-K^b): 111 nM

SIITFEKL [T4]
Kd (H2-K^b): 59 nM

SIIQFEKL [Q4]
Kd (H2-K^b): 65 nM

SSIEFARL [gB498-505]
Kd (H2-K^b): 32 nM
